Laboratory results reported in patent US3973021A, “2-[2-(5-Nitro-2-furyl)vinyl]-4-(phydroxyanilino)quinazoline as a bactericide” (Diamond Shamrock Corporation, priority 1975, dated 1976).

Columns and labels:
Assay type in all cases: in vivo, broiler cross chicks
[1] = Example VII: 4 week chick feeding test, weight gain and feed efficiency; details: analysis of variance; over Basal Ration + Bacitracin
From the text: One hundred twenty day-old broiler cross chicks were weight equalized into 15 groups of 8 chicks each and placed in battery brooders. The 40 chick treatment groups (5 replicates) were fed the one of the three rations described below for a four week period. weekly measurements of body weights and feed consumption were made by replicate, and these measurements used to calculate weight gain and feed efficiency.
The commercial type broiler starter basal ration which was used in this study was designated as the Basal Ration, and had the following composition:
The preceding basal ration was mixed with bacitracin at a level of 4 g/T as the only growth stimulant to simulate commercial practice. This mixture was designated as the Basal Ration + Bacitracin (4 g/T) and constituted the negative control in this study.
A second ration was prepared by fortifying the Basal Ration + bacitracin described above with the Product from Example I above at a level of 200 g/T, and was designated as Basal Ration + Bacitracin + Product of Example I (200 g/T). A third ration was prepared by fortifying the Basal Ration + bacitracin described above with chlortetracycline (CTC) at a level of 200 g/T, and was designated as Basal Ration + Bacitracin + Chlortetracycline (200 g/T).
The term "growth promotion" is used herein to describe the beneficial effect of a compound in eliciting a more rapid of weight gain when compared to the weight gain of control animals not fed the compound. "Feed efficiency" is a term regularly used in animal husbandry and is a measure of the pounds of feed required to produce a pound of gain in the weight of the animal. A lower mathmatical value for feed efficiency reflects improved performance.

[2] = Example XI: 4 week chick feeding test, five replicates; details: Table V
From the text: (§1) This example compares growth promotion activity of the product of Example I with other growth promotants at a concentration of 25 g/T in the Basal Ration described in Example VII. The other growth promotants include the product described in Example I of U.S. Pat. No. 3,542,784 -- Burch and quinoxaline-1,4-dioxide. Day old broiler cross chicks were weight equalized into groups of 8 chicks each, and four replicates of 8 chicks each were fed the experimental rations over a 4 week period.
The growth promotion tests described in Example X were repeated with the exception that fives replicates of 8 chicks each were fed the formulations described in Table V for four weeks.

[3] = Example X: 4 week chick feeding test, 25 g/T
From the text: as §1

[4] = Example XII: 4 week chick feeding test, first set (Table VI); details: Table VI
From the text: as §1
The growth promotion tests described in Example X were repeated with the additional testing the products of Examples II and III.

[5] = Example XII: 4 week chick feeding test, repeat with five replicates (Table VII)

| Structure (SMILES) | statistical significance of improved feed efficiencies [1] | statistical significance of improved weight gains [1] | feed efficiency (in words) [2] | growth rate (in words) [2] | Average 4 Week Performance: Feed Efficiency ([3]; 25g/T) | Average 4 Week Performance: Gain ([3]; 25g/T) [g] | Improved Response Over Basal Ration: Feed Efficiency ([3]; 25g/T) | Improved Response Over Basal Ration: Gain ([3]; 25g/T) | growth rate and feed efficiency response (in words) ([3]; 25 g/T, Table IV) | growth rate / feed efficiency response (in words) [4] | Average 4 Week Performance: Feed Efficiency ([5]; 25g/T) | Average 4 Week Performance: Gain ([5]; 25g/T) [g] | Improved Response Over Basal Ration: Feed Efficiency ([5]; 25g/T) | Improved Response Over Basal Ration: Gain ([5]; 25g/T) [%] | growth rate / feed efficiency response (in words) ([5]; Table VII) |
| --- | --- | --- | --- | --- | --- | --- | --- | --- | --- | --- | --- | --- | --- | --- | --- |
| CN(C)[C@@H]1C(O)=C(C(N)=O)C(=O)[C@@]2(O)C(O)=C3C(=O)c4c(O)ccc(Cl)c4[C@@](C)(O)[C@H]3C[C@@H]12 [Chlortetracycline, reference compound] | significant at the 99.9% level of probability | significant at the 99.5% level of probability | moderate improvements in feed efficiencies | slight improvements in growth rates |  |  |  |  |  |  |  |  |  |  |  |
| O=[N+]([O-])c1ccc(-c2nc(Nc3ccc(O)cc3)c3ccccc3n2)o1 [Example III of U.S. 3,542,784 - Burch, 2-(5-nitro-2-furyl)-4-(p-hydroxyaniline)quinazoline, reference compound] |  |  |  |  | 1.525 | 809.5 | +1.7% | +5.8% | appeared to give a growth response in this test but with a slight, it any, effect on feed efficiency | essentially no effect on growth rate or feed efficiency | 1.737 | 668.1 | +2.7% | -2.1 | essentially no effect on growth rate or feed efficiency |
